The text below walks through data of patent US11053251B2, “GPR35 modulators” (Prometheus Biosciences, Inc., priority 2019, dated 2021).

Structures are written as SMILES.

Chain of Human GPR35 (Q9HC97 whole entry S294R): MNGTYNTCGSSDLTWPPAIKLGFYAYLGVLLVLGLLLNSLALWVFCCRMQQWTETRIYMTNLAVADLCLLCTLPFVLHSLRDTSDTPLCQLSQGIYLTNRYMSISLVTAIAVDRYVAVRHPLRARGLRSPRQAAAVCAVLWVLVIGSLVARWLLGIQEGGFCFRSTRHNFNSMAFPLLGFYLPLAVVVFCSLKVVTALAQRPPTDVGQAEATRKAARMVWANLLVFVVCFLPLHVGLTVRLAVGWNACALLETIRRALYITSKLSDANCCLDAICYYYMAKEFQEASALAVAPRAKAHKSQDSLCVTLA

The target in the first test is Human GPR35 (Homo sapiens, UniProt Q9HC97, S294R). Kind of test: Alternative Beta-Arrestin Assay (JumpIn 294R Tango U2OS cells, LiveBLAzer-FRET B/G). It is filed as cell-based. As to conditions: Human GPR35 expressing JumpIn 294R Tango U2OS cells, 5 hours treatment. In outline:
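U2OS Tango cells expressing human GPR35 S294R, plated overnight, exposed to serially diluted compounds for 5 hours. β-lactamase reporter read with LiveBLAzer-FRET B/G (CCF4-AM) after 2 h; EC50 from four-parameter fit, zaprinast as positive control.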
Consider `CCOc1cc(-c2ccc(C)c(CCC(=O)O)c2)ccc1-c1nc2[nH]nnc2c(=O)[nH]1` [Compound 321, 3-(3′-ethoxy-4-methyl-4′-(7-oxo-6,7-dihydro-3H-[1,2,3]triazolo[4,5-d]pyrimidin-5-yl)-[1,1′-biphenyl]-3-yl)propanoic acid], for which the EC50 (commonly the concentration that produces a half-maximal response) is at most 10 µM.

As to `CCOc1cc(-c2ccc(C(=O)O)c(F)c2)ccc1-c1nc2[nH]nnc2c(=O)[nH]1` [Compound 205, 3′-Ethoxy-3-fluoro-4′-(7-oxo-6,7-dihydro-3H-[1,2,3]triazolo[4,5-d]pyrimidin-5-yl)-[1,1′-biphenyl]-4-carboxylic acid], the EC50 is at most 10 µM.

`CCOc1cc(-c2cccc(CC(C)C(=O)OC)c2)ccc1-c1nc2[nH]nnc2c(=O)[nH]1` (stereo not drawn) [Compound 310, methyl 3-(3′-ethoxy-4′-(7-oxo-6,7-dihydro-3H-[1,2,3]triazolo[4,5-d]pyrimidin-5-yl)-[1,1′-biphenyl]-3-yl)-2-methylpropanoate] displayed an EC50 of at most 10 µM.

`CCOc1cc(-c2cc(O)cc(NCC(=O)O)c2)ccc1-c1nc2[nH]nnc2c(=O)[nH]1` [Compound 223, (3′-Ethoxy-5-hydroxy-4′-(7-oxo-6,7-dihydro-3H-[1,2,3]triazolo[4,5-d]pyrimidin-5-yl)-[1,1′-biphenyl]-3-yl)glycine] yielded a concentration for a half-maximal effect (EC50) of at most 10 µM.

With `O=C(O)c1ccc(-c2ccc(-c3nc4[nH]nnc4c(=O)[nH]3)c(OC3CCCC3)c2)nc1` [Compound 231, 6-(3-(Cyclopentyloxy)-4-(7-oxo-6,7-dihydro-3H-[1,2,3]triazolo[4,5-d]pyrimidin-5-yl)phenyl)nicotinic acid], the EC50 is at most 10 µM.

The molecule `CCOc1cc(-c2cc(O)cc(O[C@H](CC)C(=O)O)c2)ccc1-c1nc2[nH]nnc2c(=O)[nH]1` (single isomer, unassigned) [Compound 258] yielded an EC50 of at most 10 µM.

`CCOc1cc(-c2ccc(OCCN3CCCC3)c(CC(C)C(=O)O)c2)ccc1-c1nc2[nH]nnc2c(=O)[nH]1` (stereo not drawn) [Compound 300, 3-(3′-ethoxy-4′-(7-oxo-6,7-dihydro-3H-[1,2,3]triazolo[4,5-d]pyrimidin-5-yl)-4-(2-(pyrrolidin-1-yl)ethoxy)-[1,1′-biphenyl]-3-yl)-2-methylpropanoic acid] registered an EC50 of at most 10 µM.

In turn, `CCOc1cc(-c2ccc(O)c(OCC(=O)O)c2)ccc1-c1nc2[nH]nnc2c(=O)[nH]1` [Compound 281, 2-((3′-ethoxy-4-hydroxy-4′-(7-oxo-6,7-dihydro-3H-[1,2,3]triazolo[4,5-d]pyrimidin-5-yl)-[1,1′-biphenyl]-3-yl)oxy)acetic acid] gave an EC50 of at most 10 µM.

`CCCC(Oc1cccc(-c2ccc(-c3nc4[nH]nnc4c(=O)[nH]3)c(OCC)c2)c1)C(=O)O` (stereo not drawn) [Compound 248, 2-((3′-ethoxy-4′-(7-oxo-6,7-dihydro-3H-[1,2,3]triazolo[4,5-d]pyrimidin-5-yl)-[1,1′-biphenyl]-3-yl)oxy)pentanoic acid] registered an EC50 of at most 10 µM.

Turning to `CCOc1cc(-c2nc(C(=O)O)cs2)ccc1-c1nc2[nH]nnc2c(=O)[nH]1` [Compound 187, 2-(3-ethoxy-4-(7-oxo-6,7-dihydro-3H-[1,2,3]triazolo[4,5-d]pyrimidin-5-yl)phenyl)thiazole-4-carboxylic acid], the EC50 was at most 10 µM.

In the case of `CCOc1cc(-c2ccc(O)c(OC(C)C(=O)O)c2)ccc1-c1nc2[nH]nnc2c(=O)[nH]1` (stereo not drawn) [Compound 280, 2-((3′-ethoxy-4-hydroxy-4′-(7-oxo-6,7-dihydro-3H-[1,2,3]triazolo[4,5-d]pyrimidin-5-yl)-[1,1′-biphenyl]-3-yl)oxy)propanoic acid], the half-maximal effective concentration (EC50) is at most 10 µM.

On to `CCOc1cc(-c2ccc(F)c(O[C@@H](C)C(=O)O)c2)ccc1-c1nc2[nH]nnc2c(=O)[nH]1` [Compound 265, (S)-2-((3′-ethoxy-4-fluoro-4′-(7-oxo-6,7-dihydro-3H-[1,2,3]triazolo[4,5-d]pyrimidin-5-yl)-[1,1′-biphenyl]-3-yl)oxy)propanoic acid], for which the EC50 was at most 10 µM.

`CCOc1cc(-c2cc(O)cc(OC(C)C(=O)O)c2)ccc1-c1nc2[nH]nnc2c(=O)[nH]1` (stereo not drawn) [Compound 276, 2-((3′-ethoxy-5-hydroxy-4′-(7-oxo-6,7-dihydro-3H-[1,2,3]triazolo[4,5-d]pyrimidin-5-yl)-[1,1′-biphenyl]-3-yl)oxy)propanoic acid] came in with an EC50 of at most 10 µM.

Consider `CCOc1cc(-c2cccc(CC(CC)C(=O)O)c2)ccc1-c1nc2[nH]nnc2c(=O)[nH]1` (stereo not drawn) [Compound 239, 2-((3′-ethoxy-4′-(7-oxo-6,7-dihydro-3H-[1,2,3]triazolo[4,5-d]pyrimidin-5-yl)-[1,1′-biphenyl]-3-yl)methyl)butanoic acid], for which the EC50 is at most 10 µM.

In turn, `CCOc1cc(-c2ccc(OC(C)C)c(/C=C(\C)C(=O)O)c2)ccc1-c1nc2[nH]nnc2c(=O)[nH]1` [Compound 301, (E)-3-(3′-ethoxy-4-isopropoxy-4′-(7-oxo-6,7-dihydro-3H-[1,2,3]triazolo[4,5-d]pyrimidin-5-yl)-[1,1′-biphenyl]-3-yl)-2-methylacrylic acid] returned an EC50 of at most 10 µM.

The molecule `CCOc1cc(-c2ccc3c(c2)CC(C)(C)C(=O)O3)ccc1-c1nc2[nH]nnc2c(=O)[nH]1` [Compound 305, 5-(4-(3,3-dimethyl-2-oxochroman-6-yl)-2-ethoxyphenyl)-3,6-dihydro-7H-[1,2,3]triazolo[4,5-d]pyrimidin-7-one] came in with a concentration for a half-maximal effect (EC50) of at most 10 µM.

`CCOc1cc(-c2cccc(CCC(=O)O)c2)ccc1-c1nc2[nH]nnc2c(=O)[nH]1` [Compound 234, 3-(3′-ethoxy-4′-(7-oxo-6,7-dihydro-3H-[1,2,3]triazolo[4,5-d]pyrimidin-5-yl)-[1,1′-biphenyl]-3-yl)propanoic acid]: the EC50 is at most 10 µM.

`O=C(O)CNc1cccc(-c2ccc(-c3nc4[nH]nnc4c(=O)[nH]3)c(OCCN3CCCC3)c2)c1` [Compound 230, (4′-(7-Oxo-6,7-dihydro-3H-[1,2,3]triazolo[4,5-d]pyrimidin-5-yl)-3′-(2-(pyrrolidin-1-yl)ethoxy)-[1,1′-biphenyl]-3-yl)glycine] came in with an EC50 of 10 to 50 µM.

In turn, `O=C(O)c1ccc(-c2ccc(-c3nc4[nH]nnc4c(=O)[nH]3)c(OC3CCCC3)c2)c(O)c1` [Compound 202, 3′-(Cyclopentyloxy)-2-hydroxy-4′-(7-oxo-6,7-dihydro-3H-[1,2,3]triazolo[4,5-d]pyrimidin-5-yl)-[1,1′-biphenyl]-4-carboxylic acid] came in with an EC50 of at most 10 µM.

Molecule `CCOc1cc(-c2cccc(O[C@H](C)C(=O)O)c2)ccc1-c1nc2[nH]nnc2c(=O)[nH]1` (single isomer, unassigned) [Compound 251] registered an EC50 of at most 10 µM.

Turning to `CCOc1cc(-c2cccc(CC3(C(=O)O)CC3)c2)ccc1-c1nc2[nH]nnc2c(=O)[nH]1` [Compound 244, 1-((3′-ethoxy-4′-(7-oxo-6,7-dihydro-3H-[1,2,3]triazolo[4,5-d]pyrimidin-5-yl)-[1,1′-biphenyl]-3-yl)methyl)cyclopropane-1-carboxylic acid], the EC50 was at most 10 µM.

Molecule `CCOc1cc(-c2ccc(OC(C)C)c(CC(C)C(=O)O)c2)ccc1-c1nc2[nH]nnc2c(=O)[nH]1` (single isomer, unassigned) [Compound 314, 3-(3′-ethoxy-4-isopropoxy-4′-(7-oxo-6,7-dihydro-3H-[1,2,3]triazolo[4,5-d]pyrimidin-5-yl)-[1,1′-biphenyl]-3-yl)-2-methylpropanoic acid] gave an EC50 of at most 10 µM.

`CCOc1cc(-c2cc(O)cc(O[C@H](C)C(=O)O)c2)ccc1-c1nc2[nH]nnc2c(=O)[nH]1` (single isomer, unassigned) [Compound 255] returned an EC50 of at most 10 µM.

In turn, `CCOc1cc(-c2nc3[nH]nnc3c(=O)[nH]2)ccc1-c1cccc(OCC(=O)O)c1` [Compound 217, 2-((2′-Ethoxy-4′-(7-oxo-6,7-dihydro-3H-[1,2,3]triazolo[4,5-d]pyrimidin-5-yl)-[1,1′-biphenyl]-3-yl)oxy)acetic acid] displayed an EC50 of at most 10 µM.

`CCOc1cc(-c2cccc(/C=C(/C)C(=O)O)c2)ccc1-c1nc2[nH]nnc2c(=O)[nH]1` (single isomer, unassigned) [Compound 236, (Z)-3-(3′-ethoxy-4′-(7-oxo-6,7-dihydro-3H-[1,2,3]triazolo[4,5-d]pyrimidin-5-yl)-[1,1′-biphenyl]-3-yl)-2-methylacrylic acid]: the EC50 is at most 10 µM.

`CCOc1cc(-c2nc3[nH]nnc3c(=O)[nH]2)ccc1-c1ccc(C(=O)O)cc1` [Compound 195, 2′-Ethoxy-4′-(7-oxo-6,7-dihydro-3H-[1,2,3]triazolo[4,5-d]pyrimidin-5-yl)-[1,1′-biphenyl]-4-carboxylic acid]: the EC50 is at most 10 µM.

On to `CCOc1cc(-c2cccc(NC)c2)ccc1-c1nc2[nH]nnc2c(=O)[nH]1` [Compound 232, 5-(3-Ethoxy-3′-(methylamino)-[1,1′-biphenyl]-4-yl)-3,6-dihydro-7H-[1,2,3]triazolo[4,5-d]pyrimidin-7-one], for which the EC50 is at most 10 µM.

In turn, `CCOC(=O)c1ccc(-c2ccc(-c3nc4[nH]nnc4c(=O)[nH]3)c(OCC)c2)cc1` [Compound 191, ethyl 3′-ethoxy-4′-(7-oxo-6,7-dihydro-3H-[1,2,3]triazolo[4,5-d]pyrimidin-5-yl)-[1,1′-biphenyl]-4-carboxylate] came in with an EC50 of at most 10 µM.

For the molecule `CCOc1cc(-c2cc(C(=O)O)cs2)ccc1-c1nc2[nH]nnc2c(=O)[nH]1` [Compound 190, 5-(3-ethoxy-4-(7-oxo-6,7-dihydro-3H-[1,2,3]triazolo[4,5-d]pyrimidin-5-yl)phenyl)thiophene-3-carboxylic acid], the concentration giving a half-maximal response (EC50) was at most 10 µM.

The same test, now with this note: at 50 μM; Table 2.
Turning to `CCOC(=O)C1(Cc2cccc(-c3ccc(-c4nc5[nH]nnc5c(=O)[nH]4)c(OCC)c3)c2)CCC1` [Compound 245, ethyl 1-((3′-ethoxy-4′-(7-oxo-6,7-dihydro-3H-[1,2,3]triazolo[4,5-d]pyrimidin-5-yl)-[1,1′-biphenyl]-3-yl)methyl)cyclobutane-1-carboxylate], the “% inhibition at 50 μM” value is given as 12% inhibition at.
